Results published in ChEMBL document CHEMBL5338749, “Rapid Elaboration of Fragments into Leads Applied to Bromodomain-3 Extra-Terminal Domain” (J Med Chem, 2023).
“And” between values parts separate entries of the source, which are not always exact repeats. Equal values may be shown once. Values belong to the molecule of their own block, whether it stands above or below them.

Columns and labels:
[1] = biological target: T1, Bromodomain-containing protein 3 (Homo sapiens, UniProt Q15059); assay: Binding affinity to biotinylated BRD3-ET domain (unknown origin) expressed in Escherichia coli Rosetta (DE3) pLysS assessed as dissociation off-rate constant at 4 degreeC by SPR analysis
Target sequence in this assay (Q15059 2-726 limits assumed): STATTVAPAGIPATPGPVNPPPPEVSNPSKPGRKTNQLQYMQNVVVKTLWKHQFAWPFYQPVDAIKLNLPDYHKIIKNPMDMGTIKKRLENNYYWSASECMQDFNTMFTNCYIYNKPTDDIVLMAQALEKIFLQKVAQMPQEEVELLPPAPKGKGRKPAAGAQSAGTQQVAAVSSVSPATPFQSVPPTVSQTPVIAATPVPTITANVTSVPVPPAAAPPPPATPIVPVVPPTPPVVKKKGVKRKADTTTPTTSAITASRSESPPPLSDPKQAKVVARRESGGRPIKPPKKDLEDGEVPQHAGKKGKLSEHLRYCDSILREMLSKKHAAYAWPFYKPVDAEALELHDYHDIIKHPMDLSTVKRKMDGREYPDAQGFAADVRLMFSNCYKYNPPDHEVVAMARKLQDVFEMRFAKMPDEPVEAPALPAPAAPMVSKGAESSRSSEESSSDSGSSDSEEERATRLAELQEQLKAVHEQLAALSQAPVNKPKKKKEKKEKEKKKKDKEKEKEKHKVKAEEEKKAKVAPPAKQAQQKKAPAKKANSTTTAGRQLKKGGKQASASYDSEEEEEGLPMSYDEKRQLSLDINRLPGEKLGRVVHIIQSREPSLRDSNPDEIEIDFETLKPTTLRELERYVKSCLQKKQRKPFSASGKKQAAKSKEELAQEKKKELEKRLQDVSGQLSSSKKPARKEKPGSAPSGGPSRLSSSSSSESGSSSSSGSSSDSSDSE

[2] = biological target: T1, Bromodomain-containing protein 3; assay: Binding affinity to biotinylated BRD3-ET domain (unknown origin) expressed in Escherichia coli Rosetta (DE3) pLysS assessed as dissociation constant at 4 degreeC by SPR analysis
Target sequence in this assay (Q15059 whole entry, the tested form may be a part): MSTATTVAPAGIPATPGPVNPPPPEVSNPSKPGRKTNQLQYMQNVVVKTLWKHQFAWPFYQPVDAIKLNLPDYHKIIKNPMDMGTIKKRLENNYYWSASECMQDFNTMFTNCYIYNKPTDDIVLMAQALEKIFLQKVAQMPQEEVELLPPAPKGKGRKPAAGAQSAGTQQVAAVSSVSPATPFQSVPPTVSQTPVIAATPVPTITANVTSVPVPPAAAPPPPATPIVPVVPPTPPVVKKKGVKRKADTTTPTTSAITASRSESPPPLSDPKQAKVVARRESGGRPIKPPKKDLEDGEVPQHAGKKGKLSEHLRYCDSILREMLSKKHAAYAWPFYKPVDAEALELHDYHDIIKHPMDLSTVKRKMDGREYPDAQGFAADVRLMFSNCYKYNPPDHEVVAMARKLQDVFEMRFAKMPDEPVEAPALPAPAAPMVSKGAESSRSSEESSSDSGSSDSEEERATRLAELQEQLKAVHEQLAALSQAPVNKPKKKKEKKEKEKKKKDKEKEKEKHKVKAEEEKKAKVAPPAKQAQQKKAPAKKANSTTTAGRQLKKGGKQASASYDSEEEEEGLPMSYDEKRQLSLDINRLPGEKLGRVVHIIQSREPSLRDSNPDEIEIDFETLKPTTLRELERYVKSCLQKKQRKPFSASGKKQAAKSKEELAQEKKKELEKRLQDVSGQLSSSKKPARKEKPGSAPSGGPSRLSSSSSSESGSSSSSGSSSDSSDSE

[3] = biological target: T1, Bromodomain-containing protein 3; assay: Binding affinity to recombinant BRD3-ET domain (unknown origin) expressed in Escherichia coli Rosetta (DE3) pLysS assessed as dissociation constant by 19F- NMR analysis
Target sequence in this assay (Q15059 whole entry, the tested form may be a part): as above

[4] = biological target: T1, Bromodomain-containing protein 3; assay: Binding affinity to recombinant BRD3-ET domain (unknown origin) expressed in Escherichia coli Rosetta (DE3) pLysS assessed as dissociation constant by 1H- NMR analysis
Target sequence in this assay (Q15059 whole entry, the tested form may be a part): as above

[5] = biological target: T1, Bromodomain-containing protein 3; assay: Binding affinity to 15N-labeled recombinant BRD3-ET domain (unknown origin) expressed in Escherichia coli Rosetta (DE3) pLysS assessed as dissociation constant by […] HSQC NMR analysis
Target sequence in this assay (Q15059 whole entry, the tested form may be a part): as above

SMILES: Fc1ccc2[nH]c3c(c2c1)CCCC3NCC1CCNCC1 (stereo not given) [listing 1 of 3 here]
K [1]: 0.3 s⁻¹ and 0.49 s⁻¹

SMILES: O=C(NC1CCCc2c1[nH]c1ccc(F)cc21)[C@@H]1C=CCN1 (stereo not given in full) [listing 1 of 3 here]
Kd [2]: 47 µM

SMILES: CC(C)C[C@H](N)CC(=O)NC1CCCc2c1[nH]c1ccc(F)cc21 (stereo not given in full) [listing 1 of 3 here]
Kd [4]: 39 µM

SMILES: CC(C)C[C@H](N)CC(=O)NC1CCCc2c1[nH]c1ccc(F)cc21 (stereo not given in full) [listing 2 of 3 here]
K [1]: 0.26 s⁻¹ and 0.27 s⁻¹

SMILES: Fc1ccc2[nH]c3c(c2c1)CCCC3NCCC1CCCNC1 (stereo not given) [listing 2 of 3 here]
Kd [3]: 18 µM
Kd [4]: 24 µM

SMILES: Fc1ccc2[nH]c3c(c2c1)CCCC3NCC1CCNCC1 (stereo not given) [listing 2 of 3 here]
Kd [3]: 22 µM
Kd [4]: 61 µM

SMILES: CC(C)C[C@H](N)CC(=O)NC1CCCc2c1[nH]c1ccc(F)cc21 (stereo not given in full) [listing 3 of 3 here]
Kd [2]: 11 µM

SMILES: Fc1ccc2[nH]c3c(c2c1)CCCC3NCC1CCNCC1 (stereo not given) [listing 3 of 3 here]
Kd [2]: 17 µM

SMILES: O=C(NC1CCCc2c1[nH]c1ccc(F)cc21)[C@@H]1C=CCN1 (stereo not given in full) [listing 2 of 3 here]
K [1]: 0.13 s⁻¹ and 0.22 s⁻¹

SMILES: Fc1ccc2[nH]c3c(c2c1)CCCC3NCCC1CCCNC1 (stereo not given) [listing 3 of 3 here]
K [1]: 0.28 s⁻¹

Other lines, results leading:

Kd [3]: 68 µM
Kd [4]: 93 µM
SMILES: Fc1ccc2[nH]c3c(c2c1)CCCC3NCC1CCNC1 (stereo not given) [listing 1 of 3 here]

Kd [2]: 7.8 µM
SMILES: Fc1ccc2[nH]c3c(c2c1)CCCC3NCCC1CCCNC1 (stereo not given) [listing 1 of 3 here]

Kd [5]: 30 µM
Kd [2]: 93 µM
SMILES: CC(C)(C)OC(=O)N1CCC(CNC2CCCc3c2[nH]c2ccc(F)cc32)C1 (stereo not given)

Kd [5]: 31 µM
Kd [2]: 86 µM
SMILES: CC(C)(C)OC(=O)N1CCC(CNC2CCCc3c2[nH]c2ccc(F)cc32)CC1 (stereo not given)

Kd [2]: 31 µM
Kd [4]: 54 µM
SMILES: O=C(NC1CCCc2c1[nH]c1ccc(F)cc21)C1CCNC1 (stereo not given)

Kd [5]: 64 µM
SMILES: O=C(NC1CCCc2c1[nH]c1ccc(F)cc21)[C@@H]1C=CCN1 (stereo not given in full) [listing 3 of 3 here]

K [1]: 0.22 s⁻¹ and 0.33 s⁻¹
SMILES: Fc1ccc2[nH]c3c(c2c1)CCCC3NCC1CCNC1 (stereo not given) [listing 2 of 3 here]

Kd [5]: 230 µM
Kd [2]: 380 µM
SMILES: OC1CCCc2c1[nH]c1ccccc21 (stereo not given)

Kd [2]: 25 µM
Kd [4]: 33 µM
SMILES: O=C(CC1CCCNC1)NC1CCCc2c1[nH]c1ccc(F)cc21 (stereo not given)

Kd [2]: 11 µM
SMILES: Fc1ccc2[nH]c3c(c2c1)CCCC3NCC1CCNC1 (stereo not given) [listing 3 of 3 here]

Kd [5]: 150 µM
Kd [2]: 260 µM
SMILES: CC(=O)NC1CCCc2c1[nH]c1ccc(F)cc21 (stereo not given)
